Results taken from patent US20100009997A1, “METHOD OF TREATING A METABOLIC OR NEUROPSYCHIARTY DISORDER WITH A BH4 DERIVATIVE PRODRUG” (BIOMARIN PHARMACEUTICAL INC., priority 2007, published 2010).

Legend:
[1] = set-up: species or system Sprague Dawley rats; settings: male, Sprague Dawley, rat, in vivo, po, 100 mg/kg
Procedure: This example allows for comparison of the pharmacokinetics of the BH4 derivative versus that of BH4 following single oral administration in rats.
Single doses of BH4 (10 and 100 mg/kg) were administered orally to a […] of male Sprague Dawley rats (6 weeks old) under fasting conditions. Single doses of Compound I were administered orally to a […] of male Sprague Dawley rats (6 weeks old) under fasting conditions.
With respect to the administered BH4, the maximum total biopterin concentrations in plasma 2 hrs and 1 hr post-dosing were 108 ng/ml (i.e., about 3 fold the endogenous level) and 1227 ng/ml (i.e., about 30 fold the endogenous level), respectively. […] The ratio of reduced biopterin to total biopterins in plasma (i.e., the reduced-form ratio) was relatively static (73%-96%).

[2] = set-up: species or system cynomolgus monkeys; settings: female, cynomolgus monkey, in vivo, po, 10 mg/kg
Procedure: The example allows comparison of the pharmacokinetics of sapropterin and the BH4 derivative after a single oral administration in groups of cynomolgus monkeys.
A single dose of sapropterin (10 mg/kg) was administered orally to a first group of female cynomolgus monkeys (3/group) under fasting conditions. A single dose of Compound I (10 mg/kg) was administered orally to second group of female cynomolgus monkeys (3/group) under fasting conditions.
The bioavailability (F) following a 10 mg/kg oral administration to female monkeys was about 9%.

Compound | biopterin elimination half-life (t1/2) [1] | bioavailability (F) [2] | plasma elimination half-life of biopterin [2]
C[C@H](O)[C@H](O)[C@H]1CNc2nc(N)[nH]c(=O)c2N1 [BH4, (6R)-5,6,7,8-tetrahydro-L-biopterin] | about 1.1 hr | – | –
C[C@H](O)[C@H](O)[C@H]1CNc2nc(N)[nH]c(=O)c2N1 [sapropterin] | – | about 9% | approximately 1.4 hrs
